# Earlier results as cited in publication doi:10.1101/2023.04.08.536135v1 (bioRxiv, 2023).
# Tested on: IDE
substance,measurement,value
"bradykinin (RPPGFSPFR; Bradykinin; UniProt P01042 381-389, looked up)",rate of degradation by IDE relative to that of insulin,at least 20 fold
